Data reported in US7544497B2, “Compositions for manipulating the lifespan and stress response of cells and organisms” (President and Fellows of Harvard College, priority 2003, dated 2009).
Where “and” joins values, the source holds several entries; their conditions need not be identical. Equal values may be shown once. One block for each compound: values may come before it.

Columns and labels:
recombinant human SIRT1 = target: T1, recombinant human SIRT1 (Homo sapiens, UniProt Q96EB6); test: SIRT1 fluorescent deacetylation assay (p53-382 acetylated peptide substrate); type: biochemical; conditions: for SIRT1 stimulating activity (in words): 25 μM NAD+, 25 μM p53-382 acetylated peptide
T1 sequence (Q96EB6 1-747): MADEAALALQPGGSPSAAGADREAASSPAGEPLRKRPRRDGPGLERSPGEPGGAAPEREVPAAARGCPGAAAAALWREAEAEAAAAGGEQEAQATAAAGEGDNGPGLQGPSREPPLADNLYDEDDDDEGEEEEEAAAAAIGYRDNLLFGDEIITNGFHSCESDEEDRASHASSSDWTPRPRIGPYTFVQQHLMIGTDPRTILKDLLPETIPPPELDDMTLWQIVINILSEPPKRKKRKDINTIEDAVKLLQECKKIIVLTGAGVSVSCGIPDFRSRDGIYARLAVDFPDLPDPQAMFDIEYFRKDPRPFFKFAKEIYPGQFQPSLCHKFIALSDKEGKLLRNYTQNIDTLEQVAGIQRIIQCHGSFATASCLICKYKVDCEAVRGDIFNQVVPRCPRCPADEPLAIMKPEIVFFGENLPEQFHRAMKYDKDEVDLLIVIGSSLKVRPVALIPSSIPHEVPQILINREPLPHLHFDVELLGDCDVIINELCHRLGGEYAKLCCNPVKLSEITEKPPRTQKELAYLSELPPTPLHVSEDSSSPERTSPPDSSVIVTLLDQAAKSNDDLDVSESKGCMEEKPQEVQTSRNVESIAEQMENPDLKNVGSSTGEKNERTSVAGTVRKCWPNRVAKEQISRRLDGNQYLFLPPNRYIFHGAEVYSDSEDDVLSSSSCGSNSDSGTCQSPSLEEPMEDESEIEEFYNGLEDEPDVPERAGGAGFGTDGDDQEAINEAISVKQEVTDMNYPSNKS
Text: To identify compounds that modulate SIRT1 activity, we screened a number of small molecule libraries using a fluorescent deacetylation assay in 96-well plates^26. The substrate used in the assay was a fluorogenic peptide based on the sequence encompassing the p53-K382 acetylation site, a known target of SIRT1 in vivo^20,21,27. This substrate was preferred over a variety of other fluorogenic peptide substrates that were based on other known HDAC targets (FIG. 5). The small molecule libraries included analogues of nicotinamide, ε-acetyl lysine, NAD^+, nucleotides, nucleotide analogues and purinergic ligands. From the initial screen, several sirtuin inhibitors were found (Supplementary Table 7). However, the most striking outcome was the identification of two compounds, quercetin and piceatannol, that stimulated SIRT1 activity five and eight-fold, respectively (Table 1). Both quercetin and piceatannol have been previously identified as protein kinase inhibitors^28,29.
His6-tagged recombinant SIRT1 and GST-tagged recombinant Sir2 were prepared as previously described^26. From 0.1 to 1 μg of SIRT1 and 1.5 μg of Sir2 were used per deacetylation assay (in 50 μl total reaction) as previously described^26. SIRT1 assays and certain of those for Sir2 employed the p53-382 acetylated substrate (‘Fluor de Lys-SIRT1’, BIOMOL) rather than FdL.
Themed compound libraries (BIOMOL) were used for primary and secondary screening. […] For water soluble compounds and negative controls, 1% v/v DMSO was added to the assay. […] HeLa cells were grown and the cellular deacetylation assays were performed and read, as above, but in full-volume 96-well microplates (Corning Costar 3595). Unless otherwise indicated all initial rate measurements were means of three or more replicates, obtained with single incubation times, at which point 5% or less of the substrate initially present had been deacetylated. Calculation of net fluorescence increases included subtraction of a blank value, which in the case of Sir2 was obtained by omitting the enzyme from the reaction and in the case of SIRT1 by adding an inhibitor (200 μM suramin or 1 mM nicotinamide) to the reaction prior to the acetylated substrate. […] All error bars represent the standard error of the mean.
All SIRT1 rate measurements used in the calculation of “Ratio to Control Rate” were obtained with 25 μM NAD^+ and 25 μM p53-382 acetylated peptide substrate were performed as described above and in K. T. Howitz et al. Nature (2003) 425: 191. All ratio data were calculated from experiments in which the total deacetylation in the control reaction was 0.25-1.25 μM peptide or 1-5% of the initial concentration of acetylated peptide.

S. cerevisiae = test: Yeast replicative lifespan by micro-manipulation; conditions: 10 μM; for Average lifespan: complete 2% glucose medium, wild type untreated 22.9
Human 293 cells = test: Survival of 293 cells (Coulter counter); type: cell-based; conditions: 50 micromolar
Protocol: Human 293 were grown to exponential phase under standard conditions and subjected to a dose of compound (50 micromolar) for 96 hours. The number of live cells each time point was counted using a Coulter counter.

C. elegans = C. elegans lifespan assay; type: in vivo; conditions: 100/500 μM, N2 worms, E. coli as food; untreated 100%
Protocol: Thus, the presence of resveratrol in the growth media of C. elegans extends their lifespan.
Bristol N2 (Caenorhabditis Genetics Center) was used as the wild-type strain. The sir-2.1 mutant strain was generated by backcrossing VC199 (sir-2.1 (ok434)) to N2 four times. Cultures were grown on standard NGM media and maintained on E. coli strain OP50. For the lifespan assays, synchronized animals were transferred to treatment plates as young adults (2 d after hatching, day 0 of assay), and were transferred to fresh treatment plates every 2 days for the first 6 to 8 days of the assay. […] For some lifespan trials, heat-killed OP50 were used as a food source. OP50 cultures were heated to 65° C. for 30 minutes, then pelleted and resuspended in 1/10 volume in S Basal supplemented with 10 mM MgSO4. In all assays, worms were monitored daily for mortality by gently probing with a platinum pick. Assays were performed at 24° C.

[1] = Solution stability (t1/2) from SIRT1 fold-stimulation of aged stock; type: physicochemical; conditions: ethanol stock 2.5 mM, room temperature, nitrogen atmosphere
Text: The fold-stimulation (ratio to control) obtained with a compound diluted from an aged stock solution was compared to an identical dilution from a stock solution freshly prepared from the solid compound. “t1/2” is defined as the time required for the SIRT1 fold-stimulation of the compound from the aged solution to decay to one-half of that obtained from a freshly prepared solution. […] Stocks were aged by storage at room temperature, in glass vials, under a nitrogen atmosphere.

SIRT1 deacetylase = target: T2, SIRT1 deacetylase (Homo sapiens, UniProt Q96EB6); test: High-throughput SIRT1 screening protocol (384 well); type: biochemical; conditions: 200 μM NAD+, 5 μM Fluor de Lys-SIRT1 substrate; roughly 50 μM
T2 construct: purchased BIOMOL
T2 sequence (Q96EB6 1-747): T1 sequence (Q96EB6 1-747)
Protocol: The reaction mixture contains (final): 0.5 units/reaction SIRT1 deacetylase (BIOMOL); 200 μM NAD^+; 5 μM Fluor de Lys-SIRT1 substrate (BIOMOL); buffer (25 mM Tris/Cl, pH 8.0, 137 mM NaCl, 2.7 mM KCl, 1 mM MgCl2, and 1 mg/ml BSA). In addition, a reaction mixture containing no enzyme was made so that each well receiving compound has a corresponding “no enzyme control” well. Reactions were performed in black 384 well plates (NUNC) in a final volume of 25 μl/well.
The reactions were started by combining enzyme and substrate in a reaction mixture immediately prior to aliquoting in plates (or substrate only for “no enzyme control” plates). Mixture were aliquoted to plates using Biotek μFill (Biotek Instruments). Control mixtures were manually added to designated wells. A library compound was added at a desired concentration by pin transfer to both “with enzyme” and “no enzyme” plates. Compounds were added in at least triplicate (with enzyme reaction in duplicate and no enzyme controls) at a final concentration of roughly 50 μM. The plates were incubated at 37° C. for 30-60 minutes. Then 25 μl of 1× Developer II (BIOMOL) plus 2 mM nicotinamide were added to all wells to stop the reactions. The reactions were left for at least 30 minutes at 37° C. for the signal to develop. The plates were read in a microplate-reading fluorometer capable of excitation at a wavelength in the range of 350-380 nm and detection of emitted light in the range of 440-460 nm. A read time of 0.1 sec per well was used.

D. melanogaster = D. melanogaster adult survival assay; type: in vivo
Protocol: Survival assays were conducted independently with adult D. melanogaster in two laboratories. In the first laboratory, all trials used an yw marked wild-type strain. […] Newly eclosed adults were placed in 1L demography cages with approximately 75 males and 75 females. Three to four replicate 1L demography cages were used for each treatment group in each trial. Every two days, dead flies were removed and scored, and food vials were replenished. Food vials contained cornmeal-sugar-yeast diet with SAF yeast as either 2% or 3% by weight. […] Fresh stock solutions and adult media were prepared weekly. In the second laboratory, lifespan trials were conducted with the wild type strain Canton-S, dSir2^4.5 and […], University of Oregon), […], Stockholm University, Sweden), and dSir2^KG00871 (Drosophila Stock Center, Bloomington, Ind.). Larvae for all tests were reared on standard cornmeal-sugar-yeast diet. […] In all trials, 20 males with 20 females were placed into each of 10 vials/treatment group. Every two days, flies were passed into new vials and dead flies were counted. […] Fresh stock solution and adult media was prepared weekly.

SMILES: [N-]=[N+]=Nc1ccc(/C=C/c2cc(O)cc(O)c2)cc1 [BML-232]
SIRT1 stimulating activity (in words) (recombinant human SIRT1): very similar SIRT1 activating properties to resveratrol

SMILES: O=C(/C=C/c1ccc(O)c(O)c1)c1ccc(O)cc1O [butein]
Average lifespan (S. cerevisiae): 35.5 generations

SIRT1 stimulating activity (in words) (recombinant human SIRT1): abolished activity
SMILES: O=C(Nc1cc(O)cc(O)c1)c1ccccc1 [BML-219, N-(3,5-Dihydroxyphenyl)benzamide]

SMILES: CSc1ccc(/C=C/c2cc(O)cc(O)c2)cc1 [BML-230]
Survival of 293 cells (Human 293 cells; 0 h): 100% | Survival of 293 cells (Human 293 cells; 48 h): 55% | Survival of 293 cells (Human 293 cells; 96 h): 57% | SIRT1 dose response, stimulated activity compared with resveratrol (recombinant human SIRT1; 25 μM NAD+ and p53-382 acetylated peptide, 20 minutes): exceeds that stimulated by resveratrol at all concentrations tested | ratio (R) of BML-230-stimulated to resveratrol-stimulated SIRT1 rate (recombinant human SIRT1; 500 μM activator, 25 μM NAD+ and p53-382 acetylated peptide, 20 minutes): ~1.4

SMILES: Oc1cc(O)cc(/C=C/c2ccc(O)c(O)c2)c1 [piceatannol]
Average lifespan (S. cerevisiae): 24.0 generations

SMILES: CC(=O)Oc1cc(O)cc(/C=C/c2ccc(O)cc2)c1 [BML-221, 3,4′-Dihydroxy-5-acetoxy-trans-stilbene]
% change in yeast replicative lifespan relative to untreated organisms (S. cerevisiae; 2% (w/v) glucose YPD, untreated 100%): 165% | % change in C. elegans lifespan relative to untreated organisms (C. elegans): >100% (ongoing) | solution stability relative to resveratrol [1]: vast improvement

SIRT1 stimulating activity (in words) (recombinant human SIRT1): did not significantly diminish | activation of SIRT1 (positive controls) (SIRT1 deacetylase): 3.28 fold
SMILES: Oc1cc(O)cc(/C=C/c2ccccc2)c1 [Pinosylvin, 3,5-Dihydroxy-trans-stilbene]

SMILES: O=c1c(O)c(-c2ccc(O)c(O)c2)oc2cc(O)ccc12 [fisetin]
longevity on restricted diet (D. melanogaster; restricted diet): neither resveratrol nor fisetin further increased longevity | lifespan extension (up to) (D. melanogaster; wild type, males and females, independent tests): up to 23% | Average lifespan (S. cerevisiae): 30.0 generations

SMILES: O=c1c(O)c(-c2ccc(O)c(O)c2)oc2cc(O)cc(O)c12 [quercetin]
stimulation of SIRT1 activity (recombinant human SIRT1; initial screen): five | Average lifespan (S. cerevisiae): 23.4 generations

SIRT1 Vmax decrease (recombinant human SIRT1; 50 μM nicotinamide, absence of resveratrol, NAD+ or p53-382 acetylated peptide varied): 30% and 36%
SMILES: NC(=O)c1cccnc1 [Nicotinamide]

SMILES: Cc1ccc(/C=C/c2cc(O)cc(O)c2)cc1 [BML-228]
Survival of 293 cells (Human 293 cells; 0 h): 100% | Survival of 293 cells (Human 293 cells; 48 h): 46% | Survival of 293 cells (Human 293 cells; 96 h): 32%

SMILES: COc1ccc(/C=C/c2cc(O)cc(O)c2)cc1 [BML-233, 3,5-Dihydroxy-4′-methoxy-trans-stilbene]
activation of SIRT1 (positive controls) (SIRT1 deacetylase): 2.1 fold

SMILES: CCc1ccc(/C=C/c2cc(O)cc(O)c2)cc1 [BML-225]
Survival of 293 cells (Human 293 cells; 0 h): 100% | Survival of 293 cells (Human 293 cells; 48 h): 5% | Survival of 293 cells (Human 293 cells; 96 h): 8%

SIRT1 stimulating activity (in words) (recombinant human SIRT1): nearly as detrimental
SMILES: Oc1cc(O)cc(/C=C/C2CCCCC2)c1 [BML-224]

SIRT1 stimulating activity (in words) (recombinant human SIRT1): absence of activity
SMILES: O=c1c(-c2ccc(O)cc2)coc2cc(O)cc(O)c12 [genistein]

SIRT1 stimulating activity (in words) (recombinant human SIRT1): did not significantly diminish
SMILES: Oc1cc(O)cc(/C=C/c2ccc(Cl)cc2)c1 [BML-217, 3,5-Dihydroxy-4′-chloro-trans-stilbene]
